One assay deals with Aspergillus flavus. The assay is described as follows: Antifungal activity against Aspergillus flavus by dry weight method. Type of assay: functional. Also noted: unit not given beside the values.
In a further assay the test system is Fusarium verticillioides. The assay is described as follows: Antifungal activity against Fusarium moniliforme by dry weight method. The class given is functional.
Assay [1] has as its system Aspergillus niger. The assay can be described thus: Antifungal activity against Aspergillus niger by dry weight method. Type of assay: functional.
In assay [2] the test system is Bacillus subtilis. The assay is described as follows: Antibacterial activity against Bacillus subtilis assessed as zone of inhibition. The class given is functional.
The next assay concerns Candida albicans. The assay is described as follows: Antifungal activity against Candida albicans assessed as zone of inhibition. The class given is functional.
The test system of assay [3] is Escherichia coli. The assay can be described thus: Antibacterial activity against Escherichia coli assessed as zone of inhibition. Type of assay: functional.
For another assay, the system named is Salmonella enterica. The assay is described as follows: Antibacterial activity against Salmonella enterica assessed as zone of inhibition. The class given is functional.
In the next assay the test system is HeLa. The assay is described as follows: Cytotoxicity against human HeLa cells by MTT assay. Type of assay: functional, cell-based. On the technique in general: Tetrazolium dyes change colour on reduction, which living cells bring about.
A further assay has as its system SiHa. The assay is described as follows: Cytotoxicity against human SiHa cells by MTT assay. Type of assay: functional, cell-based.
For assay [4], the system named is Aspergillus niger. The assay is described as follows: Antifungal activity against Aspergillus niger assessed as zone of inhibition. Type of assay: functional.
The subject of assay [5] is Bacillus subtilis. The assay is described as follows: Antibacterial activity against Bacillus subtilis. Type of assay: functional.
The subject of assay [6] is Staphylococcus aureus. The assay is described as follows: Antibacterial activity against Staphylococcus aureus. The class given is functional.
Assay [7] deals with Staphylococcus aureus. The assay is described as follows: Antibacterial activity against Staphylococcus aureus assessed as zone of inhibition. The class given is functional.
In assay [8] the test system is Escherichia coli. The assay is described as follows: Antibacterial activity against Escherichia coli. The class given is functional.
The test system of assay [9] is Pseudomonas aeruginosa. The assay can be described thus: Antibacterial activity against Pseudomonas aeruginosa assessed as zone of inhibition. The class given is functional.
For assay [10], the system named is Pseudomonas aeruginosa. The assay can be described thus: Antibacterial activity against Pseudomonas aeruginosa. Type of assay: functional.
The next assay has as its system HepG2. The assay is described as follows: Cytotoxicity against human HepG2 cells by MTT assay. Type of assay: functional, cell-based.
The next assay concerns HCT-116. The assay is described as follows: Cytotoxicity against human HCT-116 cells by MTT assay. The class given is functional, cell-based.
A further assay relates to MCF7. The assay can be described thus: Cytotoxicity against human MCF7 cells by MTT assay. The class given is functional, cell-based.
A further assay relates to Rattus norvegicus. The assay can be described thus: Analgesic activity in Sprague-Dawley rat at 15 mg/kg after 2 hrs by hot plate test. Type of assay: functional. (In general: Thermal pain tests record how soon the animal reacts.)
The nature of assay [11]: Inhibition of soybean 15-LOX. Also noted: species or system Glycine max.

Converted amounts (≈) assume the structure as drawn.

In the case of `CSc1nn2c(C)cc(=O)[nH]c2c1-c1nc2ccccc2n1C`, the Activity in the assay on Aspergillus flavus was 0.16; in the assay on Fusarium verticillioides, 0.12; in the assay with Aspergillus niger [1] it was 0.26.

With `Cc1cc(-n2ncc(C#N)c2N)n2ncc(C#N)c2n1`, the “inhibition zone (IZ)” value is on record as 16.1 mm in the assay with Bacillus subtilis [2], 17.1 mm with Candida albicans and 14.2 mm in the assay on Escherichia coli [3].

For the compound `O=C(Nc1ccccc1)c1cnn2ccc(-c3ccccn3)nc12`, the “inhibition zone (IZ)” value with Salmonella enterica was 20 mm.

Turning to `COc1cc(-c2cc(C(=O)N3CCN(C(=O)c4ccccc4NCc4cccs4)CC3)nc3cc(-c4ccccc4)nn23)cc(OC)c1OC`, the IC50 (in general, the concentration needed to halve the response being measured) in the assay on HeLa is 1460 nM; in the assay on SiHa, 1560 nM.

For `COc1ccc(Nc2nn3c(N)c(C#N)c(-c4ccc(C)cc4)nc3c2C(=O)Nc2ccc(Cl)cc2)cc1`, the results for the “inhibition zone (IZ)” value in the assay with Candida albicans and in the assay on Aspergillus niger [4] were 18 mm and 15 mm, respectively.

For the compound `CN(C)[C@@H]1C(O)=C(C(N)=O)C(=O)[C@@]2(O)C(O)=C3C(=O)c4c(O)cccc4[C@@](C)(O)[C@H]3C[C@@H]12` [TETRACYCLINE], the “inhibition zone (IZ)” value with Bacillus subtilis [2] is recorded as 25 mm; with Staphylococcus aureus [7] it was 25 mm; in the assay with Pseudomonas aeruginosa [9], 20 mm; in the assay on Escherichia coli [3], 23 mm. Besides, the MIC (usually the least concentration at which growth counts as inhibited) in the assay with Bacillus subtilis [5] is 31.2 µg/mL (≈ 70.3 µM); in the assay on Staphylococcus aureus [6], 62.5 µg/mL (≈ 141 µM); against Escherichia coli [8], 15.6 µg/mL (≈ 35.1 µM); in the assay with Pseudomonas aeruginosa [10] it was 62.5 µg/mL (≈ 141 µM).

Regarding `COc1cc(CNc2ccccc2C(=O)N2CCN(C(=O)c3cc(-c4cc(OC)c(OC)c(OC)c4)n4nc(-c5ccccc5)cc4n3)CC2)cc(OC)c1OC`, the IC50 with HeLa is 1510 nM; in the assay with SiHa, 1910 nM.

For `Cc1cc(NN2C(=O)CCC2=O)n2ncc(C#N)c2n1`, the MIC with Bacillus subtilis [5] and against Escherichia coli [8] was 10 µg/mL (≈ 37 µM) each time.

Regarding `Cc1nc2c(c(C)nc3c(C#N)cnn32)c(Cl)c1CCCl`, the “inhibition zone (IZ)” value with Bacillus subtilis [2] is listed as 15.1 mm; in the assay on Aspergillus niger [4] it was 17.2 mm; with Escherichia coli [3], 15.3 mm.

In the case of `N#Cc1c(-c2ccccc2)nc2c(/N=N/c3cccc(C(F)(F)F)c3)c(N)nn2c1O`, the figures for the IC50 with HepG2, in the assay on HCT-116 and in the assay with MCF7 were 2.41 µg/mL (≈ 5.69 µM), 2.39 µg/mL (≈ 5.65 µM) and 2.09 µg/mL (≈ 4.94 µM), respectively.

Consider `CC[C@H](CO)Nc1nc(NCc2ccccc2)c2ncn(C(C)C)c2n1` [SELICICLIB], for which the values for the half-inhibitory concentration (IC50) in the assay with HeLa and in the assay with SiHa were 2200 nM and 2690 nM, respectively.

`Cc1ccc(N/N=C2\C(=O)n3nc(C)cc3N=C2C(F)(F)F)cc1`: the Activity in the assay with Rattus norvegicus amounted to 121.1%.

`Nc1nc2c(/N=N/c3ccc(C(F)(F)F)cc3)c(N)nn2c(N)c1/N=N/c1ccc(S(=O)(=O)Nc2ncccn2)cc1`: the values for the half-inhibitory concentration (IC50) in the assay with HepG2, in the assay with HCT-116 and in the assay with MCF7 were 3.4 µg/mL (≈ 5.69 µM), 2.4 µg/mL (≈ 4.02 µM) and 1.4 µg/mL (≈ 2.34 µM), respectively.

With `Cc1ccc(-c2ccnc3c(C(N)=O)c(Nc4ccccc4)nn23)cc1`, in the assay on Bacillus subtilis [2], the “inhibition zone (IZ)” value turned out to be 9 mm. Moreover, the minimum inhibitory concentration (MIC) against Bacillus subtilis [5] stood at 3.9 µg/mL (≈ 11.4 µM); against Staphylococcus aureus [6], 7.81 µg/mL (≈ 22.7 µM); in the assay with Escherichia coli [8], 15.6 µg/mL (≈ 45.5 µM); in the assay on Pseudomonas aeruginosa [10] it was 7.81 µg/mL (≈ 22.7 µM).

Turning to `CSc1nn2c(C)cc(C)nc2c1-c1nc2ccccc2n1C`, the Activity in the assay on Aspergillus flavus turned out to be 0.3; with Fusarium verticillioides it was 0.11; in the assay on Aspergillus niger [1], 0.27. For the same compound, the “inhibition zone (IZ)” value with Escherichia coli [3] was 9 mm.

Turning to `CC(Cc1ccc(O)c(O)c1)C(C)Cc1ccc(O)c(O)c1` (stereo unspecified) [NORDIHYDROGUAIARETIC ACID], in assay [11], half-maximal inhibition (IC50) required 8500 nM.

On to `COc1ccc(Nc2nn3c(-c4ccc(C)cc4)ccnc3c2C(N)=O)cc1`, for which the minimal inhibitory concentration (MIC) came to 3.9 µg/mL (≈ 10.4 µM) in the assay on Bacillus subtilis [5], 7.81 µg/mL (≈ 20.9 µM) with Staphylococcus aureus [6], 15.6 µg/mL (≈ 41.8 µM) in the assay on Escherichia coli [8] and 7.81 µg/mL (≈ 20.9 µM) with Pseudomonas aeruginosa [10].

As to `Cc1ccc(-c2nc3c(/N=N/c4cccc(C(F)(F)F)c4)c(N)nn3c(O)c2C#N)cc1`, the IC50 is 8.47 µg/mL (≈ 19.4 µM) in the assay with HepG2, 12 µg/mL (≈ 27.4 µM) in the assay on HCT-116 and 11.2 µg/mL (≈ 25.6 µM) in the assay with MCF7.

As for `COc1ccc(Nc2nn3c(N)c(C#N)c(-c4cccc(Cl)c4)nc3c2C(=O)Nc2ccccc2)cc1`, in the assay on Aspergillus niger [4], the “inhibition zone (IZ)” value is on record as 15 mm.

For `CSc1nn2c(-c3ccccc3)c(C#N)c(N)nc2c1-c1nc2ccccc2n1C`, the Activity in the assay on Aspergillus flavus is recorded as 0.36; in the assay with Fusarium verticillioides, 0.19; in the assay on Aspergillus niger [1] it was 0.51. For the same compound, the “inhibition zone (IZ)” value with Staphylococcus aureus [7] was determined as 9 mm.

Take `COc1ccc(Nc2nn3c(N)c(C#N)c(-c4cccc(C)c4)nc3c2C(=O)Nc2ccc(Cl)cc2)cc1`: in the assay with Aspergillus niger [4], the “inhibition zone (IZ)” value came out at 15 mm.

Regarding `CC1=CC(c2ccccc2)n2nc(-c3ccc(C)cc3)cc2N1` (stereo unspecified), the concentration for half-maximal inhibition (IC50) amounted to 10.3 µg/mL (≈ 34.2 µM) in the assay with HepG2, 22.5 µg/mL (≈ 74.7 µM) in the assay with HCT-116 and 23.8 µg/mL (≈ 79 µM) in the assay on MCF7.

The values above are taken from ChEMBL document CHEMBL5241120, “Insights into the medicinal chemistry of heterocycles integrated with a pyrazolo[1,5-a]pyrimidine scaffold” (RSC Med Chem, 2022).
